Experiment [1] has as its target GDP-bound NRAS wild-type protein (Homo sapiens, UniProt P01111). The experiment can be described thus: Binding to NRAS by surface plasmon resonance (SPR), Single Cycle Kinetics. The settings on record: SPR, GDP-bound NRAS wild-type protein vs GDP-bound KRAS wild-type protein. On the technique in general: Surface plasmon resonance follows binding to a sensor surface in real time, without labels.

Experiment [2] deals with GDP-bound KRAS wild-type protein (Homo sapiens, UniProt P01116). The experiment can be described thus: Binding to KRAS by surface plasmon resonance (SPR), Single Cycle Kinetics. The settings on record: SPR Single Cycle Kinetics, GDP-bound KRAS wild-type protein, 1:1 binding model; read-out: KRAS KD.
In experiment [3] the target is GDP-bound HRAS wild-type protein (Homo sapiens, UniProt P01112). The experiment can be described thus: Binding to HRAS by surface plasmon resonance (SPR), Single Cycle Kinetics. The following applies: SPR, GDP-bound HRAS wild-type protein vs GDP-bound KRAS wild-type protein.

Molecules are shown by their SMILES. *1 amine or outer side, *2 acyl side, *3 side chain or, on linkers, in order; H or OH if unused. Where a SMILES comes first, the peptide text is derived from it. Bridges are numbered along the chain shown (N, C = ends). [ ]: non-standard residue; d: D form. The star is where a group is joined. hPhe(3-Cl-4-CF3) = N[C@@H](CCc1ccc(C(F)(F)F)c(Cl)c1)C(=O)O; NPrPhe(4-CF3) = CCCN[C@@H](Cc1ccc(C(F)(F)F)cc1)C(=O)O; X30 = C=CCCN([C@@H](Cc1ccc(C)cc1)C(=O)[*:2])[*:1]; NMeGly(cPent) = CN[C@H](C(=O)O)C1CCCC1; Aze(3S-Me) = C[C@H]1CN[C@@H]1C(=O)O; NMeAllylGly = C=CC[C@H](NC)C(=O)O; NMeD = CN[C@@H](CC(=O)O)C(=O)O; NMeL = CN[C@@H](CC(C)C)C(=O)O; Morpholide = C1CN(*)CCO1; NMeA = CN[C@@H](C)C(=O)O; dNMeA = CN[C@H](C)C(=O)O; Ac5c = NC1(C(=O)O)CCCC1; NEtG = CCNCC(=O)O; Sar = CNCC(=O)O

As a reminder, the Kd is the equilibrium constant for the complex coming apart.

Sequence of GDP-bound HRAS wild-type protein (P01112 whole entry): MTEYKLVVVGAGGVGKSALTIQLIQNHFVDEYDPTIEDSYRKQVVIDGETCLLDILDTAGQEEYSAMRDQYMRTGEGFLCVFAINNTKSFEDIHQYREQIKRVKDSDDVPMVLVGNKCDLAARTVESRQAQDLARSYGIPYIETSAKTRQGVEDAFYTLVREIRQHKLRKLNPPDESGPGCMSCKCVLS
Sequence of GDP-bound NRAS wild-type protein (P01111 whole entry): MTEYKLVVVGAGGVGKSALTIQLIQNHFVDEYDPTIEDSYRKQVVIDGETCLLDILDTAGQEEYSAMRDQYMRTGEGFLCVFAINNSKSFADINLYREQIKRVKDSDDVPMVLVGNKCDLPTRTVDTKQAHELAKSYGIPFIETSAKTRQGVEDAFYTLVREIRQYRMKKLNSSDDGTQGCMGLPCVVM
Sequence of GDP-bound KRAS wild-type protein (P01116 whole entry): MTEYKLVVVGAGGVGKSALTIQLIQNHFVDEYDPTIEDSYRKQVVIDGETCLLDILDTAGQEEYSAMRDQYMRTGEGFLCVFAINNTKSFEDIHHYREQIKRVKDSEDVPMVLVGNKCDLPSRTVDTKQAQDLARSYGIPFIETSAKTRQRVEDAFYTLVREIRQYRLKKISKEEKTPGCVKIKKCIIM

Consider `C=CCCN1C(=O)[C@H](CC=C)N(C)C(=O)CN(C)C(=O)[C@H]([C@@H](C)CC)NC(=O)[C@H](CC(C)C)N(C)C(=O)C[C@@H](C(=O)N2CCOCC2)N(C)C(=O)[C@H](C2CCCC2)N(C)C(=O)C2(CCCC2)NC(=O)[C@@H]2CCCN2C(=O)[C@H](CCc2ccc(C(F)(F)F)c(Cl)c2)NC(=O)CN(C)C(=O)[C@@H]1Cc1ccc(C)cc1` [PP0140] ([NMeL]I[Sar][NMeAllylGly][X30][Sar][hPhe(3-Cl-4-CF3)]P[Ac5c][NMeGly(cPent)][NMeD]-Morpholide; lactam N-11), for which, in experiment [1], the “NRAS/KRAS (ratio of KD value for NRAS to KD value for KRAS)” value is “C (A compound having a KD ratio of 0.1 or more and less than 3 is denoted as C)”. Besides, the Kd in experiment [2] worked out at 800 nM. Further, the “HRAS/KRAS (ratio of KD value for HRAS to KD value for KRAS)” value in experiment [3] was “B (a compound having 3 or more and less than 10 is denoted as B)”.
In the case of `CCCN1C(=O)[C@@H]2[C@@H](C)CN2C(=O)[C@H](C)N(C)C(=O)[C@H]([C@@H](C)CC)NC(=O)[C@H](CC(C)C)N(C)C(=O)C[C@@H](C(=O)N2CCOCC2)N(C)C(=O)[C@H](C2CCCC2)N(C)C(=O)C2(CCCC2)NC(=O)[C@@H]2CCCN2C(=O)[C@H](CCc2ccc(C(F)(F)F)c(Cl)c2)NC(=O)CN(C)C(=O)[C@@H]1Cc1ccc(C(F)(F)F)cc1` [PP0141] ([NMeL]I[NMeA][Aze(3S-Me)][NPrPhe(4-CF3)][Sar][hPhe(3-Cl-4-CF3)]P[Ac5c][NMeGly(cPent)][NMeD]-Morpholide; lactam N-11), in experiment [1], the “NRAS/KRAS (ratio of KD value for NRAS to KD value for KRAS)” value was “C (A compound having a KD ratio of 0.1 or more and less than 3 is denoted as C)”. The Kd in experiment [2] was 0.55 nM. Also, in experiment [3], the “HRAS/KRAS (ratio of KD value for HRAS to KD value for KRAS)” value is “B (a compound having 3 or more and less than 10 is denoted as B)”.
On to `CCCN1C(=O)CN(C)C(=O)CN(C)C(=O)[C@H]([C@@H](C)CC)NC(=O)[C@H](CC(C)C)N(C)C(=O)C[C@@H](C(=O)N2CCOCC2)N(C)C(=O)[C@H](C2CCCC2)N(C)C(=O)C2(CCCC2)NC(=O)CN(CC)C(=O)[C@H](CCc2ccc(C(F)(F)F)c(Cl)c2)NC(=O)CN(C)C(=O)[C@@H]1Cc1ccc(C(F)(F)F)cc1` [PP0144] ([NMeL]I[Sar][Sar][NPrPhe(4-CF3)][Sar][hPhe(3-Cl-4-CF3)][NEtG][Ac5c][NMeGly(cPent)][NMeD]-Morpholide; lactam N-11), for which, in experiment [1], the “NRAS/KRAS (ratio of KD value for NRAS to KD value for KRAS)” value was “B (a compound having 3 or more and less than 10 is denoted as B)”. The equilibrium dissociation constant (Kd) in experiment [2] stood at 0.24 nM. In experiment [3], the “HRAS/KRAS (ratio of KD value for HRAS to KD value for KRAS)” value is “C (A compound having a KD ratio of 0.1 or more and less than 3 is denoted as C)”.
With `CCCN1C(=O)CN(C)C(=O)CN(CC)C(=O)[C@H]([C@@H](C)CC)NC(=O)[C@H](CC(C)C)N(C)C(=O)C[C@@H](C(=O)N2CCOCC2)N(C)C(=O)[C@H](C2CCCC2)N(C)C(=O)C2(CCCC2)NC(=O)[C@@H]2CCCN2C(=O)[C@H](CCc2ccc(C(F)(F)F)c(Cl)c2)NC(=O)CN(C)C(=O)[C@@H]1Cc1ccc(C(F)(F)F)cc1` [PP0145] ([NMeL]I[NEtG][Sar][NPrPhe(4-CF3)][Sar][hPhe(3-Cl-4-CF3)]P[Ac5c][NMeGly(cPent)][NMeD]-Morpholide; lactam N-11), the “NRAS/KRAS (ratio of KD value for NRAS to KD value for KRAS)” value in experiment [1] is “B (a compound having 3 or more and less than 10 is denoted as B)”. The Kd in experiment [2] stood at 0.5 nM. Besides, in experiment [3], the “HRAS/KRAS (ratio of KD value for HRAS to KD value for KRAS)” value is “B (a compound having 3 or more and less than 10 is denoted as B)”.
Take `CCCN1C(=O)CN(C)C(=O)CN(C)C(=O)[C@H]([C@@H](C)CC)NC(=O)[C@H](CC(C)C)N(C)C(=O)C[C@@H](C(=O)N2CCOCC2)NC(=O)[C@H](C2CCCC2)N(C)C(=O)C2(CCCC2)NC(=O)[C@@H]2CCCN2C(=O)[C@H](CCc2ccc(C(F)(F)F)c(Cl)c2)NC(=O)CN(C)C(=O)[C@@H]1Cc1ccc(C(F)(F)F)cc1` [PP0146] ([NMeL]I[Sar][Sar][NPrPhe(4-CF3)][Sar][hPhe(3-Cl-4-CF3)]P[Ac5c][NMeGly(cPent)]D-Morpholide; lactam N-11): the “NRAS/KRAS (ratio of KD value for NRAS to KD value for KRAS)” value in experiment [1] was “B (a compound having 3 or more and less than 10 is denoted as B)”. In addition, the Kd in experiment [2] came to 0.42 nM. Further, the “HRAS/KRAS (ratio of KD value for HRAS to KD value for KRAS)” value in experiment [3] was “B (a compound having 3 or more and less than 10 is denoted as B)”.
On to `CCCN1C(=O)CN(C)C(=O)CN(C)C(=O)[C@H]([C@@H](C)CC)NC(=O)[C@H](CC(C)C)N(C)C(=O)C[C@@H](C(=O)N2CCOCC2)N(C)C(=O)[C@H](C2CCCC2)N(C)C(=O)C2(CCCC2)NC(=O)[C@@H]2CCCN2C(=O)[C@H](CCc2ccc(C(F)(F)F)c(Cl)c2)NC(=O)[C@@H](C)N(C)C(=O)[C@@H]1Cc1ccc(C(F)(F)F)cc1` [PP0148] ([NMeL]I[Sar][Sar][NPrPhe(4-CF3)][dNMeA][hPhe(3-Cl-4-CF3)]P[Ac5c][NMeGly(cPent)][NMeD]-Morpholide; lactam N-11), for which the “NRAS/KRAS (ratio of KD value for NRAS to KD value for KRAS)” value in experiment [1] is “B (a compound having 3 or more and less than 10 is denoted as B)”. Besides, the Kd in experiment [2] was found to be 3.4 nM. For the same compound, the “HRAS/KRAS (ratio of KD value for HRAS to KD value for KRAS)” value in experiment [3] was “B (a compound having 3 or more and less than 10 is denoted as B)”.

The values above are taken from patent US20240158446A1, “CYCLIC COMPOUND HAVING SELECTIVE INHIBITORY ACTION ON KRAS OVER HRAS AND NRAS” (CHUGAI SEIYAKU KABUSHIKI KAISHA, priority 2021, published 2024).
